Laboratory results taken from US20090062255A1, “TUMOR-TARGETING EVALUATION METHODOLOGY AND COMPOUNDS RELATED THERETO” (THALLION PHARMACEUTICALS INC., priority 2007, published 2009).

Key:
[1] = system: SRBC; assay: Hemolysis of SRBC; type: cell-based; settings: concentration necessary to achieve 50% hemolysis of SRBC
[2] = biological target: T1, human 5-LO (Homo sapiens, UniProt P09917); assay: 5-LO inhibition assay (EIA quantitation of LTB4); type: biochemical; settings: 4 μM compound, 1% DMSO; read-out: Percentage of inhibition or binding activity, 5-LO (4 μM)
T1 construct: Human peripheral blood […] (PMNs) were isolated through a Ficoll-Paque density gradient; endogenous in cells; host or cells: human peripheral blood mononuclear cells (PBML/PMNs)
T1 sequence (P09917 1-674): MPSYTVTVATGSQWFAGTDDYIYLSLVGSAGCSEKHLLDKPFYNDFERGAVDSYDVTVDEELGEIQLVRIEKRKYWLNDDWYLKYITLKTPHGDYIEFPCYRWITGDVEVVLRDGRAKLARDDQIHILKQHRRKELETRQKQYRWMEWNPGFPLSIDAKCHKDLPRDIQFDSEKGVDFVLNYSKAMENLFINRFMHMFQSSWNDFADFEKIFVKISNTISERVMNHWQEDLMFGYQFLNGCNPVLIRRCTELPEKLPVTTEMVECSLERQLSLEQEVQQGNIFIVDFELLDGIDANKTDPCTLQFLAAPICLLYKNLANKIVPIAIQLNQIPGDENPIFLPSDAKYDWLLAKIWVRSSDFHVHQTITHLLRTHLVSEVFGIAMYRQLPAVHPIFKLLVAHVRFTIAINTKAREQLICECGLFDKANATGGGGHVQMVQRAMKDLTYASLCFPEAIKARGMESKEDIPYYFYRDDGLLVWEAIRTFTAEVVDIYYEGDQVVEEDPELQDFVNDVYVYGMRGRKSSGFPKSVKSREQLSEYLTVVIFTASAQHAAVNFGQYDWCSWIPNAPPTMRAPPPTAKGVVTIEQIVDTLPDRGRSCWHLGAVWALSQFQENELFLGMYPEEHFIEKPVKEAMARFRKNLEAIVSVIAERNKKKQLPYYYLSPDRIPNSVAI
Description: 5-Lipoxygenase (5-LO) catalyzes the oxidative metabolism of arachidonic acid to 5-hydroxyeicosatetraenoic acid (5-HETE), the initial reaction leading to formation of leukotrienes.
Human peripheral blood […] (PMNs) were isolated through a Ficoll-Paque density gradient. PMNs were stimulated by addition A23187 (30 μM final concentration). […] Following incubation, samples were neutralized with NaOH and centrifuged. Leukotriene B4 content was measured in the supernatant using an Enzyme Immunosorbant Assay (EIA) assay. The experiment was performed in triplicate.
The procedures used are based on the respective references mentioned above and the conditions are summarized in Tables 16 (enzyme assays) and 17 (radioligand receptor assays).
(§1) Binding Assays were done at constant concentration of the compound, in 1% DMSO as vehicle, and are specified below each enzyme/receptor type in Table 18. The results are expressed in Table 18 as percentage inhibition. Significance was obtained when a result was ≧50% binding or inhibition (underlined).

[3] = biological target: T2, Leukotriene, Cysteinyl (CysLT1) receptor (Homo sapiens, UniProt Q9Y271); assay: CysLT1 radioligand binding assay; settings: 4 μM compound, 1% DMSO; read-out: Percentage of inhibition or binding activity, CysLT1 (4 μM)
T2 construct: expressed in transfected cells; host or cells: CHO-K1 cells
T2 sequence (Q9Y271 1-337): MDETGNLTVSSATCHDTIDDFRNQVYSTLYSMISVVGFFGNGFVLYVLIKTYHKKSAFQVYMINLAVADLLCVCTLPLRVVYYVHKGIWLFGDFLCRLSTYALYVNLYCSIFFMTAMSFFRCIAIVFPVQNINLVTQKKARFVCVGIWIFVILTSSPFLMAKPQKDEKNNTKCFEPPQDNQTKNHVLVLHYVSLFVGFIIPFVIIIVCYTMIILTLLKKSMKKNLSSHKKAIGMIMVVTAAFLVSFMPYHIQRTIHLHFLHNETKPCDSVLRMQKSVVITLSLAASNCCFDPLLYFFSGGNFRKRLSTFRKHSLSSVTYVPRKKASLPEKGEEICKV
Excerpt: Leukotriene, Cysteinyl (CysLT1) is involved in inflammation and CysLT1-selective antagonists are used as treatment for bronchial asthma.
The procedures used were based on known assays: ACAT (from rat; Ref: Largis et al (1989), J. Lipid. Res., vol 30, 681-689), COX-2 (human; Ref: Riendeau et al (1997), Can. J. Physiol. Pharmacol., vol 75, 1088-1095 and Warner et al (1999), Pro. Natl. Acad. Sci. USA, vol 96, 7563-7568), 5-LO (human; Ref: Carter et al (1991), J. Pharmacol. Exp. Ther., vol 256, no 3, 929-937, and Safayhi et al (2000), Planta Medica, vol 66, 110-113), PBR (from rat; Le Fur et al (1983), Life Sci. USA, vol 33, 449-457), CysLT1 (human; Martin et al (2001), Biochem. Pharmacol., vol 62, no 9, 1193-1200) and CBR (from rat; Damm et al (1978), Res. Comm. Chem. Pathol. Pharmacol., vol 22, 597-600 and Speth et al (1979), Life Sci., vol 24, 351-357).
Binding assays were done for each of Compounds 1-12 and 46 using ACAT, COX-2, 5-LO, PBR and CysLT1 enzymes. The procedures used are based on the respective references mentioned above and the conditions are summarized in Tables 16 (enzyme assays) and 17 (radioligand receptor assays).
as §1

| SMILES | inhibition at 4 µM [2] | inhibition at 4 µM [3] | Hemolysis (ED50 μg/mL) [1] |
| --- | --- | --- | --- |
| CC(C)=CCC/C(C)=C/CC/C(C)=C/CN1C(=O)c2cccc(O)c2Nc2c(O)cc(O)cc21 [Compound 1, 10-farnesyl-4,6,8-trihydroxy-5,10-dihydrodibenzo[b,e][1,4]diazepin-11-one] | 99% | 92% | 7.6 µg/mL |
| CC(C)=CCC/C(C)=C/CC/C(C)=C/CN1C(=O)c2cccc(O)c2N(C)c2c(O)cc(O)cc21 [Compound 2, 10-farnesyl-4,6,8-trihydroxy-5-methyl-5,10-dihydro-dibenzo[b,e][1,4]diazepin-11-one] | 93% | 75% | 5.12 µg/mL |
| CC(C)=CCC/C(C)=C/CC/C(C)=C/CN1C(=O)c2cccc(O)c2N(Cc2ccccc2)c2c(O)cc(O)cc21 [Compound 3, 5-benzyl-10-farnesyl-4,6,8-trihydroxy-5,10-dihydro-dibenzo[b,e][1,4]diazepin-11-one] | 72% | 59% | >64 µg/mL |
| CC(=O)Oc1cc(OC(C)=O)c2c(c1)N(CC=C(C)CCC=C(C)CCC=C(C)C)C(=O)c1cccc(O)c1N2 [Compound 9, 6,8-diacetoxy-10-farnesyl-4-hydroxy-5,10-dihydro-dibenzo[b,e][1,4]diazepin-11-one] | 96% | 70% | >64 µg/mL |
| CC(=O)Oc1cccc2c1Nc1c(OC(C)=O)cc(O)cc1N(CC=C(C)CCC=C(C)CCC=C(C)C)C2=O [Compound 10, 4,6-diacetoxy-10-farnesyl-8-hydroxy-5,10-dihydro-dibenzo[b,e][1,4]diazepin-11-one] | 97% | 67% | >64 µg/mL |
| CC(=O)Oc1cc(O)c2c(c1)N(CC=C(C)CCC=C(C)CCC=C(C)C)C(=O)c1cccc(OC(C)=O)c1N2 [Compound 11, 4,8-diacetoxy-10-farnesyl-6-hydroxy-5,10-dihydro-dibenzo[b,e][1,4]diazepin-11-one] | 97% | 74% | 9.8 µg/mL |
| CC(=O)Oc1cc(OC(C)=O)c2c(c1)N(CC=C(C)CCC=C(C)CCC=C(C)C)C(=O)c1cccc(OC(C)=O)c1N2 [Compound 12, 4,6,8-triacetoxy-10-farnesyl-5,10-dihydro-dibenzo[b,e][1,4]diazepin-11-one] | 86% | 33% | >64 µg/mL |
| CC(C)CCCC(C)CCCC(C)CCN1C(=O)c2cccc(O)c2Nc2c(O)cc(O)cc21 (centres unmarked) [Compound 46, 10-(3,7,11-trimethyldodecyl)-4,6,8-trihydroxy-5,10-dihydro-dibenzo[b,e][1,4]diazepin-11-one] | 65% | 71% | 13.9 µg/mL |

Now from value to compound, other results behind:

| inhibition at 4 µM [2] | inhibition at 4 µM [3] | SMILES | Hemolysis (ED50 μg/mL) [1] |
| --- | --- | --- | --- |
| 98% | 64% | COc1cccc2c1Nc1c(O)cc(O)cc1N(C/C=C(\C)CC/C=C(\C)CCC=C(C)C)C2=O [Compound 4, 10-farnesyl-6,8-dihydroxy-4-methoxy-5,10-dihydro-dibenzo[b,e][1,4]diazepin-11-one] | >64 µg/mL |
| 98% | 72% | COc1cc(O)cc2c1Nc1c(O)cccc1C(=O)N2C/C=C(\C)CC/C=C(\C)CCC=C(C)C [Compound 5, 10-farnesyl-4,8-dihydroxy-6-methoxy-5,10-dihydro-dibenzo[b,e][1,4]diazepin-11-one] | >64 µg/mL |
| 71% | 24% | COc1cc(OC)c2c(c1)N(C/C=C(\C)CC/C=C(\C)CCC=C(C)C)C(=O)c1cccc(O)c1N2 [Compound 6, 10-farnesyl-4-hydroxy-6,8-dimethoxy-5,10-dihydro-dibenzo[b,e][1,4]diazepin-11-one] | >64 µg/mL |
| 63% | 15% | COc1cccc2c1Nc1c(OC)cc(O)cc1N(CC=C(C)CCC=C(C)CCC=C(C)C)C2=O [Compound 7, 10-farnesyl-8-hydroxy-4,6-dimethoxy-5,10-dihydro-dibenzo[b,e][1,4]diazepin-11-one] | >64 µg/mL |
| -13% | 13% | COc1cc(OC)c2c(c1)N(CC=C(C)CCC=C(C)CCC=C(C)C)C(=O)c1cccc(OC)c1N2 [Compound 8, 10-farnesyl-4,6,8-trimethoxy-5,10-dihydro-dibenzo[b,e][1,4]diazepin-11-one] | – |
